# Where no end group is shown, it is not given here.
# T1: HN (self-dimerization) (Homo sapiens, UniProt Q8IVG9, S7A)
# T1 construct: host or cells: chemically synthesised peptide (no expression host)
# T1 sequence (Q8IVG9 with tags, fused parts or gaps S7A): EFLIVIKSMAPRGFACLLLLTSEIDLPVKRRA
# T2: (His)6-(S7A)HN
# T2 construct: Synthetic peptide, immobilised on Ni-NTA agarose; also called His-S7A
# T2 peptide: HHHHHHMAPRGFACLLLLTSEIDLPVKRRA
# B1: (S7A)HN-DYKDDDDK (S7A-FLAG) (peptide)
# peptide: MAPRGFACLLLLTSEIDLPVKRRADYKDDDDK
# notes: Synthetic C-terminally FLAG-tagged peptide; also called (S7A)HN-FLAG
# Tests used:
# Aβ and V642I-APP = assay type: cell-based; conditions: Table 5, marked **
# Source text: (§1) F11 cells, the hybrid of a rat embryonic-day-13 primary cultured primary neuron and a mouse neuroblastoma cell, are one of the best models for primary cultured neurons as they carry representative characteristics of primary neurons, such as generation of action potentials without differentiation by NGF [22]. They have been used in various studies of is neuronal functions. Using these cells, the underlying mechanisms for cytotoxicity by V642I-APP have well been analyzed. Cytotoxicity by V642 mutants of APP has also been confirmed in multiple different systems. F11 cells were grown in Ham's F-12 (GibcoBRL, Gaithersburg, Md.) plus 18% fetal bovine serum (FBS; Hyclone, Logan, Utah) and antibiotics, as described previously. F11 cells (7×10^4 cell/well in a 6-well plate cultured in Ham's F-12 plus 18% FBS for 12-16 hr) were transfected with plasmids encoding FAD genes by lipofection [FAD cDNA 2 μg, LipofectAMINE 4 μl, PLUS reagent 8 μl (GibcoBRL)] in the absence of serum for 3 hr, and were incubated with Ham's F-12 plus 18% FBS for 2 hr. Then, culture media were changed to Ham's F-12 plus 10% FBS with or without HN peptides, and cells were cultured for an additional 67 hr. Seventy-two hr after transfection, cell mortality was measured by Trypan blue exclusion assay, performed as follows. Cells were suspended by pipetting gently, and 50 μl of 0.4% (finally 0.08%) Trypan blue solution (Sigma, St Louis, Mo.) was mixed with 200 μl of the cell suspension at room temperature. Stained cells were counted within 3 min after the mixture with Trypan blue solution.
# (§2) The primary culture of mouse cortical neurons was performed in poly-L-lysine-coated 24-well plates or 96-well plates (Sumitomo Bakelite, Akita, Japan), in the absence of serum and the presence of N2 supplement, as described previously. The purity of neurons by this method was >98%. Prepared neurons (for neurons seeded in 96-well plates: 2.5×10^4 or 5×10^4 cells/well, 100 μl culture medium/well; for neurons seeded in 24-well plates: 1.25×10^5 cells/well, 250 μl culture medium/well) were preincubated with or without 10 μM (in case for the experiment with 10 μM HN) synthetic HN for 16 hr, and treated with 25 μM Aβ in the presence or absence of 10 μM HN for 72 hr, respectively. As primary neurons were vulnerable to transient dryness during medium exchange, we treated neurons with 25 μM Aβ as follows. First, a half volume (50 μl for neurons in 96-well plates; 125 μl for neurons in 24-well plates) of old medium was discarded. Then, the same volume (50 μl for neurons in 96-well plates; 125 μl for neurons in 24-well plates) of prewarned fresh medium containing 10 μM HN and 50 μM Aβ (Aβ was directly resolved) was added to the culture. The Aβ peptides used at 25 μM to induce neurotoxicity formed aggregation in the medium during the cell culture at 37° C. for 72 hr. as described. The WST-8 cell viability assay was performed, using Cell Counting Kit-8 (Wako Pure Chemical Industries, Osaka, Japan), as described previously.
# (§3) Calcein assay was performed with Calcein-AM {3′,6′-di-(O-acetyl)-2′,7′-bis [N,N-bis(carboxymethyl)aminomethyl] fluorescein, tetraacetoxymethyl ester; Dojindo}, as described previously. These assays were simultaneously performed in the experiments with neurons seeded in 96-well plates, as follows. Seventy-two hours after Aβ treatment, cells were added with the mixture of 10 μl WST-8 solution and 1 μl of 600 μM Calcein-AM. After 2 hr incubation in a CO2 incubator at 37° C., WST-8 absorbance was measured as OD450. After exchanging the medium to PBS to lower the background, Calcein-specific fluorescence (ex=485 nm, em=535 nm) was observed by fluorescence microscopy or measured by a spectrofluorometer (Wallac1420 ARVOsx Multi Label Counter). […]
# [1] = tested on: primary cultured neurons treated with 25 μM Aβ1-43; assay type: cell-based
# Procedure: (§4) In one assay, transfection with V642I-APP causes cell death in F11 neuronal hybrid cells. In the other, treatment with Aβ peptides causes cell death in primary cultured cortical neurons.
# as §2
# Calcein assay was performed with Calcein-AM {3′,6′-di-(O-acetyl)-2′,7′-bis [N,N-bis(carboxymethyl)aminomethyl] fluorescein, tetraacetoxymethyl ester; Dojindo}, as described previously. These assays were simultaneously performed in the experiments with neurons seeded in 96-well plates, as follows. Seventy-two hours after Aβ treatment, cells were added with the mixture of 10 μl WST-8 solution and 1 μl of 600 μM Calcein-AM. After 2 hr incubation in a CO2 incubator at 37° C., WST-8 absorbance was measured as OD450. After exchanging the medium to PBS to lower the background, Calcein-specific fluorescence (ex=485 nm, em=535 nm) was observed by fluorescence microscopy or measured by a spectrofluorometer (Wallac1420 ARVOsx Multi Label Counter). Most cell viability data using Calcein assay and WST-8 assay were obtained from neurons seeded at 5×10^4 cells/well in 96-well plates (high-density neurons) and confirmed by both assays with the cells seeded at 2.5×10^4 cells/well (low-density neurons).
# Some experiments for Calcein assay were performed with neurons seeded in 24-well plates. […] In most experiments using primary neurons, four independent experiments were performed and the means? S. D. of the results were discussed.
# HN (self-dimerization) [2] = target: T1, HN (self-dimerization); assay: Dimerization experiment (Ni-bead precipitation of FLAG-tagged peptide by (His)6-tagged peptide); assay type: binding; conditions: excess amounts of competitor
# Procedure: (§5) Synthetic (His)6-tagged HN derivative peptides (1 nmol) was incubated with 20 μl of Ni-NTA agarose (QIAGEN, Hilden, Germany) in a total volume of 0.5 ml of buffer A [20 mM Tris/HCl (pH8.0) and 1 mM DTT] for 1 hr at 4° C. and washed once with buffer B [20 mM Tris/HCl (pH 7.4), 1 mM DTT, and 150 mM NaCl]. Synthetic FLAG-tagged peptides (1 nmol) were mixed with the beads immobilizing (His)6-tagged peptides in a total volume of 0.5 ml of buffer B for 2 hr at 4° C. on a rotating shaker, and washed three times with buffer B. The washed beads were mixed with 20 μl of 2× sampling buffer [100 mM Tris/HCl (pH6.8), 200 mM DTT, 4% (w/v) SDS, 0.2% bromophenol blue, and 20% (v/v) glycerol] and boiled. The supernatant was submitted to Tris/Tricine SDS-PAGE, followed by immunoblotting analysis with 1/5000 anti-FLAG monoclonal antibody M2 (Sigma).
# HN (self-dimerization) [3] = target: T3, HN (self-dimerization) (Homo sapiens, UniProt Q8IVG9); assay: as above; assay type: binding; conditions: excess amounts of competitor
# T3 construct: host or cells: chemically synthesised peptide (no expression host)
# T3 sequence (Q8IVG9 whole entry): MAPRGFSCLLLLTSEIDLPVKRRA
# Procedure: as §5
# [4] = tested on: Aβ and four FAD genes (V642I-APP, NL-APP, M146L-PS1, and N141I-PS2); assay type: cell-based
# Source text: as §1, §2, §3
# [5] = tested on: Aβ and four FAD genes (V642I-APP, NL-APP, M146L-PS1, and N141I-PS2); conditions: previously reported [16]; cited from earlier work
# [6] = tested on: V642I-APP, NL-APP, M146L-PS1, N141I-PS2 holoprotein expression in F11 cells; assay: Immunoblot analysis of transfected FAD gene expression; assay type: cell-based, rat/mouse hybrid; conditions: F11 cells treated with peptide
# Procedure: Immunoblot analysis was performed as described. For the analysis of transfected FAD gene expression, lysates (20 μg/lane) from cells transfected with each FAD gene (V642I-APP, NL-APP, M146L-PS1, N141I-PS2) were submitted to SDS-PAGE and were electrically blotted to a PVDF sheet. After blocking, the sheet was soaked with antibodies [for APP mutants: 5 μg/ml 22C11 (CHEMICON, Temecula, Calif.); for PS1 mutant: 1/2000 of anti-PS1 N-terminus antibody (CHEMICON) for PS2 mutant: 1/500 of anti-PS2 antibody (Cell Signaling Technology, Beverly, Mass.)] and then with HRP-labeled secondary antibodies. The antigenic bands were visualized by ECL (Amersham Pharmacia Biotech, Uppsala, Sweden).
# [7] = Apparent stability of peptides in the culture medium; assay type: physicochemical; conditions: 72-hr incubation of 10 μM peptides in the cultured medium; data not shown
# Source text: The Ser^7 residue plays a role different from that of Ser^14. S7A substitution nullified the action of HN, while Ser^7 racemation had no influence. […] Given the fact that EFLIVIKS or EFLIVKS is the established amino acid sequence to form a dimer and that EFLIVIKS alone had no cytoprotective action, it is most likely that Ser^7 is essential for HN to self-dimerize and that self-dimerization of HN is essential for the action of HN. […] This level of stability alterations could not account for the drastic potentiation of the rescue action by the fusion with EFLIVIKS.
# [8] = tested on: F11 cells transfected with V642I-APP cDNA; assay: F11 cell death by V642I-APP transfection (Trypan blue exclusion); assay type: cell-based
# Source text: as §4, §1
# HN (self-dimerization) [9] = assay: Dimerization experiment (Ni-bead precipitation of FLAG-tagged peptide by (His)6-tagged peptide); assay type: binding; conditions: Ni-bead precipitation, anti-FLAG immunoblot
# Procedure: as §5
# [10] = tested on: F11 cells transfected with V642I-APP, NL-APP, M146L-PS1 or N141I-PS2 cDNA; assay type: cell-based, rat/mouse hybrid; conditions: V642I-APP
# Source text: as §1
# (His)6-(S7A)HN = target: T2, (His)6-(S7A)HN; assay: Ni-bead pull-down, anti-FLAG immunoblot
# Procedure: as §5, with “(His)₆-tagged” for “(His)6-tagged”
# Synthetic (His)₆-HN was mixed with synthetic HN-FLAG, and precipitated by Ni-beads. The precipitate was examined with an anti-FLAG antibody for HN-FLAG. […] Under the same conditions, (S7A)HN-FLAG was not precipitated by (His)₆-(S7A)HN. EF-(S7A)HN-FLAG was precipitated by (His)₆-EF-(S7A)HN as efficiently as HN-FLAG precipitation by (His)₆-HN.
molecule,measurement,setting,value
"EFLIVIKS [dimerization peptide, reference compound]",Full protection,Aβ and V642I-APP,NE** (the corresponding peptide had no cytoprotective effect at 10 μM)
same,IC50,Aβ and V642I-APP,> 10000 nM
same,concentration up to which no neuroprotection against Aβ1-43 was exerted,"[1]; 25 μM Aβ1-43, primary neurons",> 100 µM
same,effect of excess competitor on EF-(S7A)HN-FLAG precipitation by (His)6-EF-(S7A)HN,HN (self-dimerization) [2],blocked
same,effect of excess competitor on HN-FLAG precipitation by (His)6-HN,HN (self-dimerization) [3],could not interfere
"MAPAGASCLLLLTGEIDLPVKRRA [AGA-HNG, reference compound]",concentration of full cytoprotection,[4],100 to 300 pM
same,Full protection (minimal concentration that exerted full cytoprotection),"[4]; Table 5, marked *",100 to 300 pM
same,augmentation of the potency of HNG by Ala substitution at both Arg4 and Phe6,[5],3-10 times
same,concentration of full neuroprotection,[5],100 to 300 pM
same,"CMV-promoter-driven expression of V642I-APP, NL-APP, M146L-PS1, or N141I-PS2 holoprotein",[6],little or only marginal alteration
EFLIVIKSMAPRGFACLLLLTSEIDLPVKRRA [EF-(S7A)HN],amount of peptide relative to the amount at time zero,[7],virtually unaltered
same,Full protection (minimal concentration that exerted full cytoprotection),Aβ and V642I-APP,˜100 nM
same,IC50,[1],~10 nM
same,concentration of full neuroprotection against Aβ1-43,[1]; 25 μM Aβ1-43,100 nM
same,suppression of Aβ neurotoxicity in the presence of 100 μM EFLIVIKS,"[1]; 25 μM Aβ1-43, EF-HN and EF-HNG at 10 μM, WST-8 and Calcein assays",could not suppress Aβ neurotoxicity at all
same,IC50,[8],1 nM
same,concentration of full cytoprotection / complete suppression against V642I-APP,[8]; F11 cells,100 nM
same,potency of cytoprotection against V642I-APP relative to HN,[8]; times higher than that of HN,about 100 times
same,self-dimerization / complex formation (in words),HN (self-dimerization) [9],self-dimerizes through the EFLIVIKS region
"YMAPRGFSCLLLLTGEIDLPVKKKK [HNG-KKK, HNG with its C-terminal KRRA substituted to KKKK]",Full protection,Aβ and V642I-APP,NE** (the corresponding peptide had no cytoprotective effect at 10 μM)
same,IC50,Aβ and V642I-APP,> 10000 nM
same,concentration up to which no neuroprotection against Aβ1-43 was exerted,"[1]; 25 μM Aβ1-43, primary neurons",> 10 µM
same,neuroprotective action against Aβ1-43 (in words),"[1]; 25 μM Aβ1-43, primary neurons",lost the neuroprotective action
same,self-dimerization / complex formation (in words),HN (self-dimerization) [9],little activity to form a complex with HN
same,effect of excess competitor on HN-FLAG precipitation by (His)6-HN,HN (self-dimerization) [3],no effect
MAPRGFACLLLLTSEIDLPVKRRA [S7A HN],amount of peptide relative to the amount at time zero,[7],about ⅔
same,Full protection,"[4]; Table 5, marked *",NE* (the corresponding peptide had no cytoprotective effect at 10 μM)
same,IC50,"[4]; Table 5, marked *, read-out: IC50",> 10000 nM
same,concentration up to which no neuroprotection against Aβ1-43 was exerted,"[1]; 25 μM Aβ1-43, primary neurons",> 10 µM
same,concentration up to which no cytoprotection against V642I-APP was exerted,[8]; F11 cells,> 10 µM
same,self-dimerization / complex formation (in words),HN (self-dimerization) [9],little activity for self-dimerization
same,effect of excess competitor on EF-(S7A)HN-FLAG precipitation by (His)6-EF-(S7A)HN,HN (self-dimerization) [2],not
same,cytoprotective action against FAD genes (in words),[10],no effect
B1,binding result,(His)6-(S7A)HN,no binding (tested: 1 nmol of each peptide in 0.5 ml)

# — US20050233413A1, “Neuroprotective polypeptides and methods of use” (priority 2002, published 2005)
